We go through seven compounds from ChEMBL document CHEMBL5528039, “Discovery of a Macrocyclic Influenza Cap-Dependent Endonuclease Inhibitor” (J Med Chem, 2024).

Series [1] relates to Influenza A virus. Description: Antiviral activity against Influenza A virus A/PR/8/34 (H1N1) infected in MDCK cells assessed as reduction in virus-induced cytopathic effect incubated for 5 days by CCK8 based microplate spectrophotometric analysis. The format is functional, organism-based. Conditions: 120 h; for EC90: time 5 day. A general note: Damage to the host cells serves as the signal in cytopathic effect assays.

Series [2] can be described thus: Prodrug conversion in BALB/c mouse assessed as Baloxavir half-life at 5 mg/kg, po measured after 24 hrs by LC-MS/MS analysis. Type of series: ADME, organism-based. Conditions: in vivo.
Series [3] relates to Influenza A virus. Description: Antiviral activity against Influenza A virus A/PR/8/34 infected in BALB/c mouse assessed as reduction in viral load in lungs at 5 mg/kg, po pre-infected with virus for 48 hrs followed by twice daily compound administration starting from day 2 and measured 1 hrs after last dose on day 5 by crystal violet staining based analysis. Type of series: functional, organism-based. Conditions: time 73.0 hrs.

A short description of series [4]: Prodrug conversion in BALB/c mouse assessed as Baloxavir AUC (0 to last) at 5 mg/kg, po measured after 24 hrs by LC-MS/MS analysis. Type of series: ADME, organism-based. The conditions noted are these: in vivo.
A short description of series [5]: Prodrug conversion in BALB/c mouse assessed as Baloxavir Cmax at 5 mg/kg, po measured after 24 hrs by LC-MS/MS analysis. The format is ADME, organism-based. The conditions noted are these: in vivo.

The source made the active and inactive calls. No cut-off for these calls is given here.

Usually EC50 stands for the concentration that produces a half-maximal response. As usually defined, the EC90 is the concentration at which the effect reaches the 90% level. For `CN1C(=O)c2c(O)c(=O)ccn2N2[C@H](c3ccccc3)c3ccccc3OCC[C@@H]12`, in the series with Influenza A virus [1], the EC50 amounted to 14 nM and the 90% effect concentration (EC90) was determined as 26 nM.
The matching figures for `CN1C(=O)c2c(O)c(=O)ccn2N2[C@H](c3ccc(F)cc3)c3cc(F)c(F)cc3OCC[C@@H]12`: 14 nM and 24 nM.
Regarding `CN1C(=O)c2c(O)c(=O)ccn2N2[C@H](c3ccccc3)c3ccc(F)c(F)c3OCC[C@@H]12` (racemic), in the series with Influenza A virus [1], the concentration for a half-maximal effect (EC50) amounted to 50 nM and the EC90 stood at 93 nM.
The term Cmax denotes the peak of the concentration-time curve. For `COC(=O)OCOc1c2n(ccc1=O)N([C@@H]1c3ccccc3SCc3c1ccc(F)c3F)[C@@H]1COCCN1C2=O` [BALOXAVIR MARBOXIL], in series [2], the t1/2 came out at 4.1 h. The result in the series on Influenza A virus [3] was Active. Further, in series [4], the AUClast amounted to 0.88 µM·h. In series [5], the Cmax was 145 nM.
Consider `CN1C(=O)c2c(O)c(=O)ccn2N2[C@H](c3ccccc3F)c3cc(F)c(F)cc3OCC[C@@H]12`, for which, in the series with Influenza A virus [1], the EC50 came to 11 nM and the EC90 worked out at 16 nM.
As for `CN1C(=O)c2c(O)c(=O)ccn2N2[C@H](c3ccc(F)c(F)c3)c3cc(F)c(F)cc3OCC[C@@H]12`, in the series on Influenza A virus [1], the concentration for a half-maximal effect (EC50) is 25 nM and the 90% effect concentration (EC90) turned out to be 42 nM.
On the same counts, the results for `CN1C(=O)c2c(O)c(=O)ccn2N2[C@H](c3ccccc3Br)c3cc(F)c(F)cc3OCC[C@@H]12` (racemic) are 11 nM and 18 nM.
